Columns and labels:
Experiment in all cases: isoTOP-ABPP mapping of AEA-DA-modified peptides in Neuro2a cells
Type in all cases: cell-based
[1] = molecular target: T1, AEA-DA-modified peptides in Neuro2a cells (Mus musculus, UniProt O88545); settings: AEA-DA-modified peptide COPS6 O88545 274-295, SEQ ID NO 24; probe 100 μM, 12 replicates
T1 construct: endogenous in cells; host or cells: Neuro2a

[2] = molecular target: T2, AEA-DA-modified peptides in Neuro2a cells (Mus musculus, UniProt P00375); settings: AEA-DA-modified peptide DHFR P00375 20-34, SEQ ID NO 30; probe 100 μM, 12 replicates
T2 construct: endogenous in cells; host or cells: Neuro2a
T2 sequence (P00375 whole entry): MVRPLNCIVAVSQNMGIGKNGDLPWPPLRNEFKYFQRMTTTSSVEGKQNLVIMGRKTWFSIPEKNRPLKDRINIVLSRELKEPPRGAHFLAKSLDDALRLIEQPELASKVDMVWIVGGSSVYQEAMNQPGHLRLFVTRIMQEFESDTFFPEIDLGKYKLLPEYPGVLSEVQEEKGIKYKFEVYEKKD

[3] = molecular target: T3, AEA-DA-modified peptides in Neuro2a cells (Mus musculus, UniProt P42125); settings: AEA-DA-modified peptide ECI1 P42125 276-284, SEQ ID NO 34; probe 100 μM, 12 replicates
T3 construct: endogenous in cells; host or cells: Neuro2a
T3 sequence (P42125 29-289): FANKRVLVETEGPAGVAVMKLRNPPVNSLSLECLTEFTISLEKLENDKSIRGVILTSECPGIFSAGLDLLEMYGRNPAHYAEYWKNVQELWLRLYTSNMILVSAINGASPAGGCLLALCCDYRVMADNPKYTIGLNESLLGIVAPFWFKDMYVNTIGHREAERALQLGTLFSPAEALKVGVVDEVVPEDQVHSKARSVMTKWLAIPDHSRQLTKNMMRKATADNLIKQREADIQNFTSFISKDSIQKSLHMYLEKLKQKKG

[4] = molecular target: T4, AEA-DA-modified peptides in Neuro2a cells (Mus musculus, UniProt P84084); settings: AEA-DA-modified peptide ARF5 P84084 39-60, SEQ ID NO 14; probe 100 μM, 12 replicates
T4 construct: endogenous in cells; host or cells: Neuro2a
T4 sequence (P84084 whole entry): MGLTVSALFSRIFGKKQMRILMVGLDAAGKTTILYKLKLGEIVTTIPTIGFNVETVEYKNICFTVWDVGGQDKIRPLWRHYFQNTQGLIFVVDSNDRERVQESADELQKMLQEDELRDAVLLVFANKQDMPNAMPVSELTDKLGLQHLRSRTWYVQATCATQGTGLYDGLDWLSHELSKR

[5] = molecular target: T5, AEA-DA-modified peptides in Neuro2a cells (Mus musculus, UniProt Q64310); settings: probe 100 μM, 12 replicates
T5 construct: endogenous in cells; host or cells: Neuro2a
T5 sequence (Q64310 whole entry): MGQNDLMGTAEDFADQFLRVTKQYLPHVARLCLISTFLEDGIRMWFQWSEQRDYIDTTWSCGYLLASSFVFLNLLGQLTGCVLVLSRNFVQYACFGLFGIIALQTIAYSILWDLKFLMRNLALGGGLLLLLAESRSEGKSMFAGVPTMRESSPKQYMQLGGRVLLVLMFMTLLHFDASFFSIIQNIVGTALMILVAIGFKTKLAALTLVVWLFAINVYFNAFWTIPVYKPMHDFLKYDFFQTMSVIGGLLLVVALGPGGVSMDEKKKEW

[6] = molecular target: T6, AEA-DA-modified peptides in Neuro2a cells (Mus musculus, UniProt Q8BJ03); settings: AEA-DA-modified peptide COX15 Q8BJ03 317-331, SEQ ID NO 25; probe 100 μM, 12 replicates
T6 construct: endogenous in cells; host or cells: Neuro2a
T6 sequence (Q8BJ03 whole entry): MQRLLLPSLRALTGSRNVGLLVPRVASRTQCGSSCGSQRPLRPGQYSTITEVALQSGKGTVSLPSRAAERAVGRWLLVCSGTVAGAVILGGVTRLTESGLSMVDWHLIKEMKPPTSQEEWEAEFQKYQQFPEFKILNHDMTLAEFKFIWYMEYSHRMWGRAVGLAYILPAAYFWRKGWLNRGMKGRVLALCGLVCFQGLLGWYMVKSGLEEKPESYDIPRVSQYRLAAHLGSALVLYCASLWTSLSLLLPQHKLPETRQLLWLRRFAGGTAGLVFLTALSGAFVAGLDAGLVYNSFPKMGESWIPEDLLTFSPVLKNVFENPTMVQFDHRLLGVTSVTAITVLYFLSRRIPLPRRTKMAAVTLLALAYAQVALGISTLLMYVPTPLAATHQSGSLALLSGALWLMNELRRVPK

[7] = molecular target: T7, AEA-DA-modified peptides in Neuro2a cells (Mus musculus, UniProt Q8VDN2); settings: AEA-DA-modified peptide ATP1A1 Q8VDN2 360-386, SEQ ID NO 17; probe 100 μM, 12 replicates
T7 construct: endogenous in cells; host or cells: Neuro2a

[8] = molecular target: T8, AEA-DA-modified peptides in Neuro2a cells (Mus musculus, UniProt Q9CPU0); settings: AEA-DA-modified peptide GLO1 Q9CPU0 160-180, SEQ ID NO 42; probe 100 μM, 12 replicates
T8 construct: endogenous in cells; host or cells: Neuro2a
T8 sequence (Q9CPU0 whole entry): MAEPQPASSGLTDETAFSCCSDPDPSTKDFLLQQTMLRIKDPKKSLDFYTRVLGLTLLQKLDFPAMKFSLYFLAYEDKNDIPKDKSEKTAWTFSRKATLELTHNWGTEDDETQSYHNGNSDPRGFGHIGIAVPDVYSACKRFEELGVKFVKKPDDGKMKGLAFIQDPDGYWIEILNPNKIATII

[9] = molecular target: T9, AEA-DA-modified peptides in Neuro2a cells (Mus musculus, UniProt Q9D379); settings: AEA-DA-modified peptide EPHX1 Q9D379 296-329, SEQ ID NO 39; probe 100 μM, 12 replicates
T9 construct: endogenous in cells; host or cells: Neuro2a
T9 sequence (Q9D379 whole entry): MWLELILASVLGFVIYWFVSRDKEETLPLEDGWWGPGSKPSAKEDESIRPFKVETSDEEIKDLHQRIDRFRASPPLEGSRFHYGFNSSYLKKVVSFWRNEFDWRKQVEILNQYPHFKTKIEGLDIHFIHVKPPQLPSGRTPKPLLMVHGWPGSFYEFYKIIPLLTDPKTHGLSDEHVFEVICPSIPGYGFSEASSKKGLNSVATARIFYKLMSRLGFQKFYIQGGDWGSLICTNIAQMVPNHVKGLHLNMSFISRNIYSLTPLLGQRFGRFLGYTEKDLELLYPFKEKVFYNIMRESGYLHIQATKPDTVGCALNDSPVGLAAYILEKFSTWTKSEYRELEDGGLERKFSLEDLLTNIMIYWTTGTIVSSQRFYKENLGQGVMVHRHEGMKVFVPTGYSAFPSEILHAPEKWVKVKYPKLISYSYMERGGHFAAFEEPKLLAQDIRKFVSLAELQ

[10] = molecular target: T10, AEA-DA-modified peptides in Neuro2a cells (Mus musculus, UniProt Q9DC61); settings: AEA-DA-modified peptide PMPCA Q9DC61 428-451, SEQ ID NO 88; probe 100 μM, 12 replicates
T10 construct: endogenous in cells; host or cells: Neuro2a
T10 sequence (Q9DC61 34-524): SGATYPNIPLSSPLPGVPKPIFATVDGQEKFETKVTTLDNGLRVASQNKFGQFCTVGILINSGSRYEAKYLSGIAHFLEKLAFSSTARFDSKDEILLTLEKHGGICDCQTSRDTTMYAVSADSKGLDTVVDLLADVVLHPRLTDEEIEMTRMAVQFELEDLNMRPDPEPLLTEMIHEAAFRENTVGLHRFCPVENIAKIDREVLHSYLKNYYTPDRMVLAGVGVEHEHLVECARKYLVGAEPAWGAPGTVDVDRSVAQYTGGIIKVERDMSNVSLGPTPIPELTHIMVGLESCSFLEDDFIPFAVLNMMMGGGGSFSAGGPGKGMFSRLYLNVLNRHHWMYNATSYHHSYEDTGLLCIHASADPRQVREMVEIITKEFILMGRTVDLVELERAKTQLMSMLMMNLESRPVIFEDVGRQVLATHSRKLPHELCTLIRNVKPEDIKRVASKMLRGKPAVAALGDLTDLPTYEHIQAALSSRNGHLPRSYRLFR

[11] = molecular target: T11, AEA-DA-modified peptides in Neuro2a cells (Mus musculus, UniProt Q9DCZ4); settings: AEA-DA-modified peptide APOO Q9DCZ4 187-197, SEQ ID NO 9; probe 100 μM, 12 replicates
T11 construct: endogenous in cells; host or cells: Neuro2a
T11 sequence (Q9DCZ4 24-198): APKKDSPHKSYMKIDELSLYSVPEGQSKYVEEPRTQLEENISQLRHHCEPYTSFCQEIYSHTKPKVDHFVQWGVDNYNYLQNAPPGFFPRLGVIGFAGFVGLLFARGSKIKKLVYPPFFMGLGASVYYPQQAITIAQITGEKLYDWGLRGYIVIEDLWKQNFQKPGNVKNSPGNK

[12] = molecular target: T12, AEA-DA-modified peptides in Neuro2a cells (Mus musculus, UniProt Q9Z2R6); settings: AEA-DA-modified peptide UNC119 Q9Z2R6 131-140, SEQ ID NO 117; probe 100 μM, 12 replicates
T12 construct: endogenous in cells; host or cells: Neuro2a

T1 sequence (O88545 whole entry): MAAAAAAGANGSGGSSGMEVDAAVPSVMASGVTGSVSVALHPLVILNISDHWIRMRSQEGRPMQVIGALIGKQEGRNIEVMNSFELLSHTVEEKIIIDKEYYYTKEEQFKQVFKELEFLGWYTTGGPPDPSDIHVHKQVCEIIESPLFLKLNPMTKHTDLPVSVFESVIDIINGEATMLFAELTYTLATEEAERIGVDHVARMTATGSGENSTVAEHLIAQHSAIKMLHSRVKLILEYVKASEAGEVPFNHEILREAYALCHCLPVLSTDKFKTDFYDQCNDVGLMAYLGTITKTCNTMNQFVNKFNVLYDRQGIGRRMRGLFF

For `C#CCCCC1(CC/C=C\C/C=C\C/C=C\CCCC(=O)NCCO)N=N1` [AEA-DA, (5Z,8Z,11Z)-N-(2-hydroxyethyl)-14-(3-(pent-4-yn-1-yl)-3H-diazirin-3-yl)tetradeca-5,8,11-trienamide], the Times observed [1] was 8, the Times observed [2] was 4 and the Times observed [3] was 2. The Times observed [4] was 9, the Times observed ([5]; AEA-DA-modified peptide SURF4 Q64310 2-20, SEQ ID NO 108) was 10 and the Times observed ([5]; AEA-DA-modified peptide SURF4 Q64310 31-44, SEQ ID NO 109) was 3. It also gave a Times observed [6] of 2, a Times observed [7] of 2 and a Times observed [8] of 2. The Times observed [9] was 8, the Times observed [10] was 7 and the Times observed [11] was 2. It also gave a Times observed [12] of 3.

— patent US10168342B2, “Lipid probes and uses thereof” (THE SCRIPPS RESEARCH INSTITUTE, priority 2015, dated 2019)
